Molecular target: T1, SiaR (Haemophilus influenzae, UniProt P44540)
T1 construct: gene HI_0143; C-terminal His-tag, plasmid pJJ185 (earlier work), expressed in E. coli, tag not reported cut
Experiment: EMSA with nan-siaPT intergenic DNA probe
Type: binding
Conditions: 100 μM GlcN-6P; co-activator; serial dilutions of SiaR; 15 nM DNA probe; pH 7.4, room temperature

T1 sequence (P44540 whole entry): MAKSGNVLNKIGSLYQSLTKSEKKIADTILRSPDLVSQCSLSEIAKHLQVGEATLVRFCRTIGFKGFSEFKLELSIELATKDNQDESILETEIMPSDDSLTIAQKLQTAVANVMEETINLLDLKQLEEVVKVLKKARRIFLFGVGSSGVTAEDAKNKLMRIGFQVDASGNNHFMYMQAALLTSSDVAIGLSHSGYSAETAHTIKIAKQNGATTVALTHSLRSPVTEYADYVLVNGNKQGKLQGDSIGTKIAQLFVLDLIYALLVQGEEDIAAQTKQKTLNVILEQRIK

N[C@H]1C(O)O[C@H](COP(=O)(O)O)[C@@H](O)[C@@H]1O (stereo partly shown) [GlcN-6P]
EMSA with nan-siaPT intergenic DNA probe: SiaR bound the probe and GlcN-6P slightly increased the binding affinity

Source: article PMC2946308, “Sialic acid transport and catabolism are cooperatively regulated by SiaR and CRP in nontypeable Haemophilus influenzae” (BMC Microbiology, 2010)
